From PubChem BioAssay (NCI)
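Interpolation was linear, between the two tested concentrations surrounding the appropriate level; five concentrations were tested over 48 hours in 96-well plates. At the GI50, growth is halved. The concentration for full growth arrest is given as TGI.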

How the values were obtained:
Assay in all cases: NCI tumour cell line growth inhibition, 48 h
[1] = test system: 786-0 renal
[2] = test system: A498 renal
[3] = test system: A549 NSCLC
[4] = test system: ACHN renal
[5] = test system: BT-549 breast
[6] = test system: CCRF-CEM leukemia
[7] = test system: COLO 205 colon
[8] = test system: DU-145 prostate
[9] = test system: EKVX NSCLC
[10] = test system: HCC-2998 colon
[11] = test system: HCT-116 colon
[12] = test system: HCT-15 colon
[13] = test system: HL-60(TB) leukemia
[14] = test system: HOP-62 NSCLC
[15] = test system: HOP-92 NSCLC
[16] = test system: HS 578T breast
[17] = test system: HT29 colon
[18] = test system: IGROV1 ovarian
[19] = test system: K-562 leukemia
[20] = test system: KM12 colon
[21] = test system: LOX IMVI melanoma
[22] = test system: M14 melanoma
[23] = test system: MALME-3M melanoma
[24] = test system: MCF7 breast
[25] = test system: MDA-MB-231 breast
[26] = test system: MDA-MB-435
[27] = test system: MOLT-4 leukemia
[28] = test system: NCI-H226 lung
[29] = test system: NCI-H23 lung
[30] = test system: NCI-H460 lung
[31] = test system: NCI-H522 lung
[32] = test system: NCI/ADR-RES ovarian
[33] = test system: OVCAR-3 ovarian
[34] = test system: OVCAR-4 ovarian
[35] = test system: OVCAR-5 ovarian
[36] = test system: OVCAR-8 ovarian
[37] = test system: PC-3 prostate
[38] = test system: RPMI-8226 leukemia
[39] = test system: RXF 393 renal
[40] = test system: SF-268 CNS
[41] = test system: SF-295 CNS
[42] = test system: SF-539 CNS
[43] = test system: SK-MEL-2 melanoma
[44] = test system: SK-MEL-28 melanoma
[45] = test system: SK-MEL-5 melanoma
[46] = test system: SK-OV-3 ovarian
[47] = test system: SN12C renal
[48] = test system: SNB-19 CNS
[49] = test system: SNB-75 CNS
[50] = test system: SR leukemia
[51] = test system: SW-620 colon
[52] = test system: T-47D breast
[53] = test system: TK-10 renal
[54] = test system: U251 CNS
[55] = test system: UACC-257 melanoma
[56] = test system: UACC-62 melanoma
[57] = test system: UO-31 renal
[58] = test system: CAKI-1 renal

## O=c1ccccc(-c2ccc(Br)cc2)c1O
[1]
  GI50: 0.408 µM
  TGI: 21.7 µM
[2]
  GI50: 1.21 µM
  TGI: 7.68 µM
[3]
  GI50: 0.322 µM
  TGI: 24 µM
[4]
  GI50: 0.367 µM
  TGI: 25.1 µM
[5]
  GI50: 0.795 µM
  TGI: 54 µM
[6]
  GI50: 0.291 µM
  TGI: > 100 µM
[7]
  GI50: 0.466 µM
  TGI: 27 µM
[8]
  GI50: 0.595 µM
  TGI: 45 µM
[9]
  GI50: 0.343 µM
  TGI: 15 µM
[10]
  GI50: 0.425 µM
  TGI: 21.8 µM
[11]
  GI50: 0.404 µM
  TGI: 14.6 µM
[12]
  GI50: 0.256 µM
  TGI: 36 µM
[13]
  GI50: 0.262 µM
  TGI: 0.718 µM
[14]
  GI50: 0.377 µM
  TGI: 15.9 µM
[15]
  GI50: 6.53 µM
  TGI: 34.1 µM
[16]
  GI50: 4.61 µM
  TGI: 83.8 µM
[17]
  GI50: 6.44 µM
  TGI: 36.8 µM
[18]
  GI50: 0.432 µM
  TGI: > 100 µM
[19]
  GI50: 0.463 µM
  TGI: > 100 µM
[20]
  GI50: 0.43 µM
  TGI: 22.6 µM
[21]
  GI50: 0.323 µM
  TGI: 13.8 µM
[22]
  GI50: 0.316 µM
  TGI: 13.1 µM
[23]
  GI50: 2.18 µM
  TGI: 47.7 µM
[24]
  GI50: 0.311 µM
  TGI: 46.8 µM
[25]
  GI50: 0.737 µM
  TGI: 35.7 µM
[26]
  GI50: 0.386 µM
  TGI: > 100 µM
[27]
  GI50: 0.334 µM
  TGI: > 100 µM
[28]
  GI50: 1.04 µM
  TGI: 16.6 µM
[29]
  GI50: 0.528 µM
  TGI: 15.8 µM
[30]
  GI50: 0.318 µM
  TGI: 10.6 µM
[31]
  GI50: 0.461 µM
  TGI: 40.9 µM
[32]
  GI50: 0.289 µM
  TGI: 2.37 µM
[33]
  GI50: 0.412 µM
  TGI: 27.6 µM
[34]
  GI50: 0.33 µM
  TGI: 27.3 µM
[35]
  GI50: 0.725 µM
  TGI: > 100 µM
[36]
  GI50: 0.383 µM
  TGI: > 100 µM
[37]
  GI50: 0.628 µM
  TGI: 37.3 µM
[38]
  GI50: 0.401 µM
  TGI: 25 µM
[39]
  GI50: 0.324 µM
  TGI: 8.12 µM
[40]
  GI50: 0.42 µM
  TGI: > 100 µM
[41]
  GI50: 0.34 µM
  TGI: 16.8 µM
[42]
  GI50: 0.458 µM
  TGI: 12.1 µM
[43]
  GI50: 0.957 µM
  TGI: 25.8 µM
[44]
  GI50: 0.489 µM
  TGI: 26.4 µM
[45]
  GI50: 0.247 µM
  TGI: 0.701 µM
[46]
  GI50: 0.428 µM
  TGI: 24.1 µM
[47]
  GI50: 0.829 µM
  TGI: 16.4 µM
[48]
  GI50: 0.459 µM
  TGI: > 100 µM
[49]
  GI50: 0.611 µM
  TGI: 27.6 µM
[50]
  GI50: 0.316 µM
  TGI: 17.1 µM
[51]
  GI50: 0.41 µM
  TGI: 40.5 µM
[52]
  GI50: 0.562 µM
  TGI: 41.3 µM
[53]
  GI50: 0.541 µM
  TGI: 70.7 µM
[54]
  GI50: 0.383 µM
  TGI: 13.6 µM
[55]
  GI50: 0.23 µM
  TGI: 8.76 µM
[56]
  GI50: 0.298 µM
  TGI: 1.73 µM
[57]
  GI50: 0.369 µM
  TGI: 20.4 µM

## NNC(=O)c1ccccc1Nc1nc(-c2cccs2)nc2ccc(Br)cc12
[1]
  TGI: > 100 µM
[2]
  TGI: > 100 µM
[3]
  TGI: > 100 µM
[4]
  TGI: > 100 µM
[5]
  TGI: > 100 µM
[58]
  TGI: > 100 µM
[6]
  TGI: > 100 µM
[7]
  TGI: > 100 µM
[8]
  TGI: > 100 µM
[9]
  TGI: > 100 µM
[10]
  TGI: > 100 µM
[11]
  TGI: > 100 µM
[12]
  TGI: > 100 µM
[13]
  TGI: > 100 µM
[14]
  TGI: > 100 µM
[15]
  TGI: > 100 µM
[16]
  TGI: > 100 µM
[17]
  TGI: > 100 µM
[18]
  TGI: > 100 µM
[19]
  TGI: > 100 µM
[20]
  TGI: > 100 µM
[21]
  TGI: > 100 µM
[22]
  TGI: > 100 µM
[23]
  TGI: > 100 µM
[24]
  TGI: > 100 µM
[25]
  TGI: > 100 µM
[26]
  TGI: > 100 µM
[27]
  TGI: > 100 µM
[28]
  TGI: > 100 µM
[29]
  TGI: > 100 µM
[30]
  TGI: > 100 µM
[31]
  TGI: > 100 µM
[32]
  TGI: > 100 µM
[33]
  TGI: > 100 µM
[34]
  TGI: > 100 µM
[35]
  TGI: > 100 µM
[36]
  TGI: > 100 µM
[37]
  TGI: > 100 µM
[38]
  TGI: > 100 µM
[40]
  TGI: > 100 µM
[41]
  TGI: > 100 µM
[42]
  TGI: > 100 µM
[43]
  TGI: > 100 µM
[44]
  TGI: > 100 µM
[45]
  TGI: > 100 µM
[46]
  TGI: > 100 µM
[47]
  TGI: > 100 µM
[48]
  TGI: > 100 µM
[49]
  TGI: > 100 µM
[50]
  TGI: > 100 µM
[51]
  TGI: > 100 µM
[52]
  TGI: > 100 µM
[53]
  TGI: > 100 µM
[54]
  TGI: > 100 µM
[55]
  TGI: > 100 µM
[56]
  TGI: > 100 µM
[57]
  TGI: > 100 µM
